Measured values published in ChEMBL document CHEMBL5042538 (J Med Chem, 2022).

Tests used:
CYP3A4 [1] = biological target: T1, CYP3A4 (Homo sapiens, UniProt P08684); test: Inactivation of CYP3A4 in human liver microsomes assessed as inactivation constant using midazolam as substrate preincubated for 5 mins followed by beta-NADP addition for 15 mins and midazolam addition after 10 mins in presence of NADPH-generating system by LC-MS/MS analysis; assay type: ADME; settings: probe midazolam, time 30 min
[2] = Drug metabolism assessed as human CYP2D6-mediated M1 metabolite formation at 7.32 mins in presence of NADPH generating system by LC-MS/MS analysis; assay type: ADME; settings: recombinant enzyme, 0.122 h
CYP3A [3] = test: Inactivation of CYP3A in human liver microsomes using midazolam as substrate assessed as enzyme remaining activity in presence of glutathione; assay type: ADME; settings: probe midazolam, read-out: INH
CYP3A4 [4] = biological target: T1, CYP3A4; test: Time dependent inhibition of recombinant human CYP3A4 assessed as enzyme remaining activity at 2.5 uM using midazolam as substrate preincubated for 30 mins in presence of NADPH-generating system relative to control; assay type: ADME; settings: recombinant human CYP3A4, probe midazolam, read-out: TDI
Cytochrome P450 3A4 [5] = biological target: T2, Cytochrome P450 3A4 (Homo sapiens, UniProt P08684); test: Inactivation of recombinant human CYP3A4 assessed as inhibition constant using midazolam as substrate preincubated for 5 mins followed by beta-NADP addition for 15 mins and midazolam addition after 10 mins in presence of NADPH-generating system by LC-MS/MS analysis; assay type: ADME
Cytochrome P450 3A4 [6] = biological target: T2, Cytochrome P450 3A4; test: Time dependent inhibition of recombinant human CYP3A4 using midazolam as substrate preincubated for 30 mins in presence of NADPH generating system followed by substrate addition incubated for 30 mins by LC-MS/MS analysi; assay type: ADME
CYP3A7 = CYP3A7 (Homo sapiens, UniProt P24462); test: Ratio of IC50 for time dependent inhibition of recombinant human CYP3A7 incubated for 30 mins by LC-MS/MS analysis to IC50 for time dependent inhibition of recombinant human CYP3A7 using midazolam as substrate preincubated for 30 mins in presence of NADPH-generating system followed by substrate addition further incubated for 30 mins by LC-MS/MS analysis; settings: recombinant human CYP3A7, probe midazolam, read-out: Ratio IC50
[7] = Time dependent inhibition of human CYP3A in human liver microsomes using midazolam as substrate preincubated for 30 mins in presence of NADPH-generating system followed by substrate addition incubated for 10 mins by LC-MS/MS analysis; assay type: ADME
Cytochrome P450 3A4 [8] = biological target: T2, Cytochrome P450 3A4; test: Inactivation of CYP3A4 in human liver microsomes assessed as inhibition constant using midazolam as substrate preincubated for 5 mins followed by beta-NADP addition for 15 mins and midazolam addition after 10 mins in presence of NADPH-generating system by LC-MS/MS analysis; assay type: ADME
[9] = Time dependent inhibition of CYP3A in human liver microsomes using midazolam as substrate preincubated for 30 mins in presence of NADPH generating system followed by substrate addition incubated for 30 mins by LC-MS/MS analysi; assay type: ADME
Cytochrome P450 3A7 [10] = biological target: T3, Cytochrome P450 3A7 (Homo sapiens, UniProt P24462); test: Time dependent inhibition of recombinant human CYP3A7 using midazolam as substrate preincubated for 30 mins in presence of NADPH generating system followed by substrate addition incubated for 30 mins by LC-MS/MS analysi; assay type: ADME
CYP3A4 [11] = biological target: T1, CYP3A4; test: Time dependent inhibition of CYP3A4 in human liver microsomes assessed as enzyme remaining activity at 2.5 uM using midazolam as substrate preincubated for 30 mins in presence of NADPH-generating system relative to control; assay type: ADME; settings: probe midazolam, read-out: TDI
[12] = Inhibition of CYP3A in human liver microsomes at 2.5 uM using Nifedipine as substrate at 10 to 20 fold excess concentration preincubated for 5 mins followed by beta-NADP addition and measured upto 12 mins; assay type: ADME; settings: 0.2 h, time <=17 min
Cytochrome P450 3A4 [13] = biological target: T2, Cytochrome P450 3A4; test: Drug metabolism assessed as human CYP3A4-mediated M1 metabolite formation at 7.32 mins in presence of NADPH generating system by LC-MS/MS analysis; assay type: ADME; settings: recombinant enzyme, 0.122 h
CYP3A4 [14] = biological target: T1, CYP3A4; test: Inactivation of recombinant human CYP3A4 assessed as inactivation constant using midazolam as substrate preincubated for 5 mins followed by beta-NADP addition for 15 mins and midazolam addition after 10 mins in presence of NADPH-generating system by LC-MS/MS analysis; assay type: ADME; settings: recombinant human CYP3A4, probe midazolam, time 30 min
CYP3A5 = CYP3A5 (Homo sapiens, UniProt P20815); test: Ratio of IC50 for time dependent inhibition of recombinant human CYP3A5 incubated for 30 mins by LC-MS/MS analysis to IC50 for time dependent inhibition of recombinant human CYP3A5 using midazolam as substrate preincubated for 30 mins in presence of NADPH-generating system followed by substrate addition further incubated for 30 mins by LC-MS/MS analysis; settings: recombinant human CYP3A5, probe midazolam, read-out: Ratio IC50
Cytochrome P450 3A4 [15] = biological target: T2, Cytochrome P450 3A4; test: Inactivation of recombinant human CYP3A4 assessed as partition ratio in presence of NADPH-generating system; assay type: ADME; settings: recombinant enzyme
[16] = Inhibition of CYP3A in human liver microsomes at 2.5 uM using de-oxyschizandrin as substrate at 10 to 20 fold excess concentration preincubated for 5 mins followed by beta-NADP addition and measured upto 12 mins; assay type: ADME; settings: 0.2 h, time <=17 min
CYP3A4 [17] = biological target: T1, CYP3A4; test: Ratio of IC50 for time dependent inhibition of recombinant human CYP3A4 incubated for 30 mins by LC-MS/MS analysis to IC50 for time dependent inhibition of recombinant human CYP3A4 using midazolam as substrate preincubated for 30 mins in presence of NADPH-generating system followed by substrate addition further incubated for 30 mins by LC-MS/MS analysis; settings: recombinant human CYP3A4, probe midazolam, read-out: Ratio IC50
Cytochrome P450 3A7 [18] = biological target: T3, Cytochrome P450 3A7; test: Time dependent inhibition of recombinant human CYP3A7 incubated for 30 mins in presence of NADPH generating system by LC-MS/MS analysis; assay type: ADME
CYP3A4 [19] = test: Time dependent inhibition of CYP3A4 in human liver microsomes assessed as enzyme remaining activity at 2.5 uM using midazolam as substrate incubated for 30 mins relative to control; assay type: ADME; settings: probe midazolam, read-out: TDI
Cytochrome P450 3A4 [20] = biological target: T2, Cytochrome P450 3A4; test: Drug metabolism assessed as human CYP3A4-mediated M2 metabolite formation at 7.80 mins in presence of NADPH generating system by LC-MS/MS analysis; assay type: ADME; settings: recombinant enzyme, 0.13 h, time 7.8 min
[21] = Inactivation of CYP3A in human liver microsomes at 0.25 uM using midazolam as substrate in presence of NADPH generating system and ferric cyanide; assay type: ADME
Cytochrome P450 3A5 [22] = biological target: T4, Cytochrome P450 3A5 (Homo sapiens, UniProt P20815); test: Time dependent inhibition of recombinant human CYP3A5 using midazolam as substrate preincubated for 30 mins in presence of NADPH generating system followed by substrate addition incubated for 30 mins by LC-MS/MS analysis; assay type: ADME
[23] = Inactivation of CYP3A in human liver microsomes at 0.25 uM using midazolam as substrate in presence of NADPH generating system and mannitol; assay type: ADME
Cytochrome P450 3A4 [24] = biological target: T2, Cytochrome P450 3A4; test: Time dependent inhibition of recombinant human CYP3A4 incubated for 30 mins in presence of NADPH generating system by LC-MS/MS analysis; assay type: ADME
CYP3A4 [25] = biological target: T1, CYP3A4; test: Inactivation of recombinant human CYP3A4 at 0.1 uM for 10 mins relative to control; assay type: ADME
CYP3A [26] = test: Inhibition of CYP3A in human liver microsomes at 1 uM using midazolam as substrate incubated for 10 mins relative to control; assay type: ADME; settings: probe midazolam
[27] = Inactivation of CYP3A in human liver microsomes at 0.25 uM using midazolam as substrate in presence of NADPH generating system and catalase; assay type: ADME
Cytochrome P450 3A5 [28] = biological target: T4, Cytochrome P450 3A5; test: Time dependent inhibition of recombinant human CYP3A5 incubated for 30 mins in presence of NADPH generating system by LC-MS/MS analysis; assay type: ADME
CYP3A4 [29] = biological target: T1, CYP3A4; test: Time dependent inhibition of recombinant human CYP3A4 assessed as enzyme remaining activity at 2.5 uM using midazolam as substrate incubated for 30 mins relative to control; assay type: ADME; settings: recombinant human CYP3A4, probe midazolam, read-out: TDI
[30] = Drug metabolism assessed as human CYP2D6-mediated M2 metabolite formation at 7.80 mins in presence of NADPH generating system by LC-MS/MS analysis; assay type: ADME; settings: recombinant enzyme, 0.13 h, time 7.8 min
CYP3A [31] = test: Ratio of IC50 for time dependent inhibition of CYP3A in human liver microsomes incubated for 30 mins by LC-MS/MS analysis to IC50 for time dependent inhibition of CYP3A in human liver microsomes using midazolam as substrate preincubated for 30 mins in presence of NADPH-generating system followed by substrate addition further incubated for 30 mins by LC-MS/MS analysis; settings: probe midazolam, read-out: Ratio IC50
[32] = Time dependent inhibition of CYP3A in human liver microsomes incubated for 30 mins in presence of NADPH generating system by LC-MS/MS analysis; assay type: ADME
[33] = Inactivation of CYP3A in human liver microsomes at 0.25 uM using midazolam as substrate in presence of NADPH generating system and super oxide dismutase; assay type: ADME
CYP3A [34] = test: Time dependent inhibition of CYP3A in human liver microsomes assessed as enzyme remaining activity at 10 uM using N-ethyl-1,8-naphthalimide as substrate preincubated for 30 mins in presence of NADPH generating system followed by substrate addition and incubated for 10 mins by microplate reader analysis relative to control; assay type: ADME; settings: probe N-ethyl-1,8-naphthalimide, time 40 min, read-out: TDI
CYP3A [35] = test: Inhibition of CYP3A in human liver microsomes at 10 uM using midazolam as substrate incubated for 10 mins relative to control; assay type: ADME; settings: probe midazolam

T1 sequence (P08684 whole entry): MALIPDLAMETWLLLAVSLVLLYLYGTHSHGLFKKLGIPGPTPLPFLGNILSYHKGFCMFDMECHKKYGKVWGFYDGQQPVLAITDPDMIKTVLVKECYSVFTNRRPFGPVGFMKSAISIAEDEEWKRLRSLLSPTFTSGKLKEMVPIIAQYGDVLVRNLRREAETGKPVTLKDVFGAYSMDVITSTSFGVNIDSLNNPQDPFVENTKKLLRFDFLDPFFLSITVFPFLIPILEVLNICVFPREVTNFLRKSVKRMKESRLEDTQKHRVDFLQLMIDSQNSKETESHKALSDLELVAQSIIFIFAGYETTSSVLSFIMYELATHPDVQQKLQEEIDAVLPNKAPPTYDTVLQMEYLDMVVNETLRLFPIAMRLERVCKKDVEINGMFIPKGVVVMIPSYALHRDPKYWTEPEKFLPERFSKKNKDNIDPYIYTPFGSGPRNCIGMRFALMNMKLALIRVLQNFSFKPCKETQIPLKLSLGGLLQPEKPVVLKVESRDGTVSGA
T2 sequence (P08684 whole entry): as above
T3 sequence (P24462 whole entry): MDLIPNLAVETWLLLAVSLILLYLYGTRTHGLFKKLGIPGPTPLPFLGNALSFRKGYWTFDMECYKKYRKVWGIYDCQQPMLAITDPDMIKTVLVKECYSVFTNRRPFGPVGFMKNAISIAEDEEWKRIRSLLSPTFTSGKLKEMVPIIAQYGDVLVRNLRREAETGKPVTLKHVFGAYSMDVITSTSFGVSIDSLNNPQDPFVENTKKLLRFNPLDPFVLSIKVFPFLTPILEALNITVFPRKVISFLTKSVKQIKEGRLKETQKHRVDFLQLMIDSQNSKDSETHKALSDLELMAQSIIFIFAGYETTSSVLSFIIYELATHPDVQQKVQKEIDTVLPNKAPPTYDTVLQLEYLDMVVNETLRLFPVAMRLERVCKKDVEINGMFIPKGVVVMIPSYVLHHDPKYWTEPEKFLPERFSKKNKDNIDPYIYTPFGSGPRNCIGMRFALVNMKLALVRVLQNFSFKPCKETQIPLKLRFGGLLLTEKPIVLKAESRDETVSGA
T4 sequence (P20815 whole entry): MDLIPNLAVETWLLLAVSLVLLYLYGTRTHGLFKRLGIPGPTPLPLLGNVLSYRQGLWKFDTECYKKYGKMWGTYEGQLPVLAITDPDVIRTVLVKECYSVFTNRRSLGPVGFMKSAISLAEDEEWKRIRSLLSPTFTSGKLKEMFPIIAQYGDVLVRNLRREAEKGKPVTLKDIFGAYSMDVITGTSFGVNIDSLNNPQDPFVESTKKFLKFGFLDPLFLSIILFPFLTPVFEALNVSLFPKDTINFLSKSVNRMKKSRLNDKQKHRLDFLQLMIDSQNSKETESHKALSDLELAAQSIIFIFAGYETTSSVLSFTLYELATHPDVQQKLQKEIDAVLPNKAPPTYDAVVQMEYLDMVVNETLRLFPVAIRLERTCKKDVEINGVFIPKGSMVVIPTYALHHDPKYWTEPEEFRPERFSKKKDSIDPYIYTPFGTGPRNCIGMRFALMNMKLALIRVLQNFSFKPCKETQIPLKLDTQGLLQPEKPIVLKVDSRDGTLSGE
Chain of CYP3A7 (P24462 whole entry): as the sequence (P24462 whole entry) above
Chain of CYP3A5 (P20815 whole entry): as the sequence (P20815 whole entry) above

SMILES: C[C@]12CCC(=O)C[C@H]1CC[C@@H]1[C@@H]2CC[C@]2(C)[C@@H](c3ccc(=O)oc3)CC[C@]12O
- kinact (CYP3A4 [1]): 0.00107 s⁻¹
- Drug metabolism [2]: Metabolite_Detected
- activity (CYP3A [3]): 43.8%
- activity at 30 min, 2.5 µM (CYP3A4 [4]): 11.9%
- Ki (Cytochrome P450 3A4 [5]): 250 nM
- IC50 (Cytochrome P450 3A4 [6]): 90 nM
- IC50 shift at 0.5 h (CYP3A7): 17.5
- IC50 [7]: 30 nM
- Ki (Cytochrome P450 3A4 [8]): 660 nM
- IC50 [9]: 450 nM
- IC50 (Cytochrome P450 3A7 [10]): 64800 nM
- activity at 30 min, 2.5 µM (CYP3A4 [11]): 19.7%
- inhibition (INH) [12]: Not Active
- Drug metabolism (Cytochrome P450 3A4 [13]): Metabolite_Detected
- kinact (CYP3A4 [14]): 0.00268 s⁻¹
- IC50 shift at 0.5 h (CYP3A5): 5.87
- Ratio (Cytochrome P450 3A4 [15]): 0.75
- inhibition (INH) [16]: Not Active
- IC50 shift at 0.5 h (CYP3A4 [17]): 17.3
- IC50 (Cytochrome P450 3A7 [18]): 10800 nM
- activity at 0.5 h, 2.5 µM (CYP3A4 [19]): 72.5%
- Drug metabolism (Cytochrome P450 3A4 [20]): Metabolite_Detected
- inhibition (INH) [21]: Active
- IC50 (Cytochrome P450 3A5 [22]): 2340 nM
- inhibition (INH) [23]: Active
- IC50 (Cytochrome P450 3A4 [24]): 1560 nM
- inhibition at 10 min, 0.1 µM (CYP3A4 [25]): 50%
- inhibition at 10 min, 1 µM (CYP3A [26]): 49%
- inhibition (INH) [27]: Active
- IC50 (Cytochrome P450 3A5 [28]): 5490 nM
- activity at 0.5 h, 2.5 µM (CYP3A4 [29]): 81.2%
- Drug metabolism [30]: Metabolite_Detected
- IC50 shift at 0.5 h (CYP3A [31]): 12.3
- IC50 [32]: 370 nM
- inhibition (INH) [33]: Active

SMILES: CC(=O)O[C@H]1[C@H]2O[C@]23[C@@H]2CC[C@@H]4CC(=O)CC[C@]4(C)[C@H]2CC[C@]3(C)[C@H]1c1ccc(=O)oc1
- IC50 [9]: 540 nM
- IC50 shift at 0.5 h (CYP3A [31]): 24.8
- IC50 [32]: 13400 nM

SMILES: C[C@]12CCC(=O)C[C@H]1CC[C@@H]1[C@@H]2CC[C@]2(C)[C@@H](c3ccc(=O)oc3)C[C@H]3O[C@]132
- IC50 [9]: 520 nM
- IC50 shift at 0.5 h (CYP3A [31]): 11.4
- IC50 [32]: 5930 nM

SMILES: C[C@]12CC[C@H](O)C[C@H]1CC[C@@H]1[C@@H]2CC[C@]2(C)[C@@H](c3ccc(=O)oc3)CC[C@]12O [BUFALIN]
- IC50 [9]: 740 nM
- activity at 10 min, 10 µM (CYP3A [34]): 6.81%
- inhibition at 10 min, 10 µM (CYP3A [35]): 53%
- IC50 [32]: 11400 nM
